The text below walks through data of patent US8222416B2, “Azaindole glucokinase activators” (Hoffmann-La Roche Inc., priority 2009, dated 2012).

In one experiment the test system is C57BL/6J mice. Kind of experiment: Glucokinase activator in vivo screen, blood glucose after oral gavage in lean and diet induced obese mice. The settings on record: Mus musculus, C57B6 mice, read-out: % gluc lowering @ 2 H; for change in vivo at 25 mg/kg: vs control at 2 hours post 25 mg/kg oral dose; for change in vivo at 50 mg/kg: vs control at 2 hours post 50 mg/kg oral dose. The protocol: Glucokinase Activator in vivo Screen Protocol in Lean and Diet Induced Obese Mice: Lean or Diet-Induced Obese (DIO) C57BL/6J mice were orally dosed via gavage with Glucokinase (GK) activator following a two hour fasting period. Blood glucose determinations were made at various (e.g. 0, 1, 2, 4 and 8 hours post-oral gavage) times during the study.
C57Bl/6J mice were obtained from Jackson Laboratory (Bar Harbor, Me.) and were maintained in a light-dark cycle with lights on from 0600-1800 hr. For studies in lean mice, the mice were received at age ten weeks and given ad libitum access to control diet (LabDiet 5001 chow, PMI Nutrition, Brentwood, Mo.), and were at least age 11 weeks at the time of study. For studies in the DIO model, the mice were received at age five weeks and given ad libitum access to Bio-Sery F3282 High Fat Diet (Frenchtown, N.J.), and were at least age 16 weeks at the time of study. The experiments were conducted during the light phase of the light-dark cycle. Mice (n=6) are weighed and fasted for a two hour period prior to oral treatment. GK activators are formulated in Gelucire vehicle (Ethanol:Gelucire44/14:PEG400q.s. 4:66:30 v/w/v. For studies in lean mice, the mice were dosed orally with 5.04 per gram of body weight (i.e. 5 ml/kg×10.0 mg/ml formulation to equal a 50 mg/kg dose). For studies in DIO mice, the mice were dosed orally with 5.04 per gram of body weight (i.e. 5.0 ml/kg×5 mg/ml formulation to equal a 25 mg/kg dose). Immediately prior to dosing, a pre-dose (time zero) blood glucose reading was acquired by snipping off a small portion of the animal's tail and collecting […] blood into a heparinized capillary tube for analysis. Following GK activator administration, additional blood glucose readings were taken at various time points post dose from the same tail wound. Results were interpreted by comparing the mean blood glucose values of vehicle treated mice with GK activator treated mice over the study period.
The Table below provides data for % glucose lowering of a representative number of compounds of the present invention vs control at 2 hours post 25 or 50 mg/kg dose in C57B6 mice: […]

Experiment [1] concerns the target T1, Recombinant human liver GK1 (GST-GK) (Homo sapiens, UniProt P35557).
T1 construct: made in house; host or cells: E. coli
T1 sequence (P35557 1-466 isoform P35557-2): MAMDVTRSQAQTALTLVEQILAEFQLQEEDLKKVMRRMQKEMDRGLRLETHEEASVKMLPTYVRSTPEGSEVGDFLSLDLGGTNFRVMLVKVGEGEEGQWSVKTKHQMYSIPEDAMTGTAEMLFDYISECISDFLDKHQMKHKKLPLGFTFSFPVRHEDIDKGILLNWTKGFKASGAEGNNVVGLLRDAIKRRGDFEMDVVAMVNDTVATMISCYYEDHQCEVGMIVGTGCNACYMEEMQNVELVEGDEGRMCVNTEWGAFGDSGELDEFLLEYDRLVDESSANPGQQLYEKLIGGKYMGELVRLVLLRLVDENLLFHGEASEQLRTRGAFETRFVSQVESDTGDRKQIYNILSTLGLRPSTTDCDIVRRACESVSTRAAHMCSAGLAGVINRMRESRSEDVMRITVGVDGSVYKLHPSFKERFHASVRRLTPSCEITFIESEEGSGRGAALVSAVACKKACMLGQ
Kind of experiment: In vitro glucokinase activity assay (G6PDH-coupled, NADH, OD340). The class given is biochemical. The note with it: concentration of activator that produced a 50% increase in the activity of GK; 5 mM D-glucose, 30° C. In short, it runs like this:
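GST-fused human liver GK1 from E. coli, run at 30° C. in pH 7.1 HEPES with 5 mM glucose, 1 mM ATP and 10% DMSO, coupled via G6PDH to NADH. OD340 rate measured after enzyme start; SC1.5 is the activator concentration raising activity 50% over DMSO control.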

In the case of `COCCOc1cnc2[nH]c([C@H](CC3CCCC3)c3ccc(S(C)(=O)=O)cc3)cc2c1` (single isomer, unassigned) [Example 16], the change in vivo at 25 mg/kg in the experiment with C57BL/6J mice is -31.3%. Besides, in experiment [1], the SC1.5 came out at 0.21 µM.

On to `CC(C)Oc1cnc2[nH]c([C@H](CC3CCCC3)c3ccc(S(C)(=O)=O)cc3)cc2c1` (single isomer, unassigned) [Example 19], for which the change in vivo at 25 mg/kg with C57BL/6J mice is -14.8%. In addition, the SC1.5 in experiment [1] was determined as 0.414 µM.

Take `COc1cnc2[nH]c(C(CC3CCCO3)c3ccc(S(C)(=O)=O)cc3)cc2c1` (single isomer, unassigned) [Example 22, 2-[1-(4-Methanesulfonyl-phenyl)-2-(tetrahydro-furan-2-yl)-ethyl]-5-methoxy-1H-pyrrolo[2,3-b]pyridine]: the change in vivo at 25 mg/kg in the experiment on C57BL/6J mice is -6.3%. In experiment [1], the SC1.5 stood at 2.5 µM.

As to `COc1cnc2[nH]c([C@H](CC3CCOCC3)c3ccc(S(C)(=O)=O)cc3)cc2c1` (single isomer, unassigned) [Example 32], the change in vivo at 25 mg/kg in the experiment on C57BL/6J mice is -23.4%. Also, in experiment [1], the SC1.5 worked out at 1.1 µM.

`COc1cnc2[nH]c([C@H](CC3CCOCC3)c3ccc(C(F)(F)F)cc3)cc2c1` (single isomer, unassigned) [Example 34]: the change in vivo at 25 mg/kg with C57BL/6J mice is -10.7%. For the same compound, in experiment [1], the SC1.5 was determined as 0.958 µM.

Regarding `COCc1cnc2[nH]c([C@H](CC3CCCC3)c3ccc(S(C)(=O)=O)cc3)cc2c1` (single isomer, unassigned) [Example 42], the change in vivo at 25 mg/kg with C57BL/6J mice is -10.3%. Besides, the SC1.5 in experiment [1] is 0.903 µM.

`CS(=O)(=O)c1ccc(C(CC2CCCCO2)c2cc3cccnc3[nH]2)cc1` (single isomer, unassigned) [Example 60, 2-[1-(4-Methanesulfonyl-phenyl)-2-(tetrahydro-pyran-2-yl)-ethyl-]-1H-pyrrolo[2,3-b]pyridine]: in the experiment with C57BL/6J mice, the change in vivo at 25 mg/kg is -29.9%. The SC1.5 in experiment [1] amounted to 0.451 µM.

As for `CS(=O)(=O)c1ccc([C@@H](CC2CCOCC2)c2cc3cccnc3[nH]2)cc1` (single isomer, unassigned) [Example 67], the change in vivo at 25 mg/kg in the experiment on C57BL/6J mice was -43.6%. Besides, in experiment [1], the SC1.5 was found to be 0.505 µM.

Consider `CC(C)(O)c1ccc([C@@H](CC2CCCC2)c2cc3cccnc3[nH]2)cc1` (single isomer, unassigned) [Example 82], for which the change in vivo at 25 mg/kg in the experiment on C57BL/6J mice is -42.7%. For the same compound, the SC1.5 in experiment [1] was determined as 0.647 µM.

Turning to `CS(=O)(=O)c1ccc([C@@H](CC2CCCC2)c2cc3cc(F)cnc3[nH]2)cc1` (single isomer, unassigned) [Example 118], in the experiment on C57BL/6J mice, the change in vivo at 25 mg/kg was -48.4%. Also, in experiment [1], the SC1.5 worked out at 0.05 µM.

As for `CC(C)(O)c1ccc([C@@H](CC2CCCC2)c2cc3cc(F)cnc3[nH]2)cc1` (single isomer, unassigned) [Example 120], the change in vivo at 25 mg/kg in the experiment on C57BL/6J mice was -52%. Further, the SC1.5 in experiment [1] was determined as 0.241 µM.

Take `CS(=O)(=O)c1ccc([C@@H](CC2CCOCC2)c2cc3cc(F)cnc3[nH]2)cc1` (single isomer, unassigned) [Example 124]: the change in vivo at 25 mg/kg in the experiment on C57BL/6J mice was -35%. In addition, the SC1.5 in experiment [1] was determined as 0.21 µM.

Turning to `CC(C)NC(=O)c1cnc2[nH]c(C(CC3CCCC3)c3ccc(S(C)(=O)=O)cc3)cc2c1` (stereo not shown) [Example 3, 2-[2-Cyclopentyl-1-(4-methanesulfonyl-phenyl)-ethyl]-1H-pyrrolo[2,3-b]pyridin-5-carboxylic acid isopropylamide], the change in vivo at 50 mg/kg in the experiment with C57BL/6J mice is -5.6%. Moreover, the SC1.5 in experiment [1] was 1.9 µM.

Take `CC(C)S(=O)(=O)c1ccc(C(CC2CCCC2)c2cc3cccnc3[nH]2)cc1` (stereo not shown) [Example 69]: the change in vivo at 50 mg/kg with C57BL/6J mice is -40.3%. Moreover, in experiment [1], the SC1.5 stood at 0.387 µM.

In the case of `CC(C)(O)c1ccc(C(CC2CCCC2)c2cc3cccnc3[nH]2)cc1F` (stereo not shown) [Example 95, 2-{4-[2-Cyclopentyl-1-(1H-pyrrolo[2,3-b]pyridin-2-yl)-ethyl]-2-fluoro-phenyl}-propan-2-ol], the change in vivo at 50 mg/kg with C57BL/6J mice is -49.4%. For the same compound, in experiment [1], the SC1.5 was determined as 0.379 µM.

As to `CS(=O)(=O)c1ccc(C(CC2CCCC2)c2cc3cccnc3[nH]2)cn1` (stereo not shown) [Example 109, 2-[2-Cyclopentyl-1-(6-methanesulfonyl-pyridin-3-yl)-ethyl]-1H-pyrrolo[2,3-b]pyridine], the change in vivo at 50 mg/kg with C57BL/6J mice was -31.6%. The SC1.5 in experiment [1] came out at 2.1 µM.

With `CS(=O)(=O)c1ccc(/C(=C\C2CCOCC2)c2cc3cc(F)cnc3[nH]2)cc1` [Example 122, 5-Fluoro-2-[(E)-1-(4-methanesulfonyl-phenyl)-2-(tetrahydro-pyran-4-yl)-vinyl]-1H-pyrrolo[2,3-b]pyridine], in the experiment on C57BL/6J mice, the change in vivo at 25 mg/kg was -59.4%. For the same compound, the SC1.5 in experiment [1] stood at 0.051 µM.

`CCOc1cccc(C(CC(C)C)c2cc3cccnc3[nH]2)c1` (stereo not shown) [Example 133, 2-(1-(3-Ethoxy-phenyl)-3-methyl-butyl)-1H-pyrrolo[2,3-b]pyridine]: in experiment [1], the SC1.5 is 25.0 µM.

For the compound `COc1cccc(C(CC(C)C)c2cc3cccnc3[nH]2)c1` (stereo not shown) [Example 134, 2-(1-(3-Methoxy-phenyl)-3-methyl-butyl)-1H-pyrrolo[2,3-b]pyridine], the SC1.5 in experiment [1] is 12.9 µM.

As to `CC(=O)c1cccc(C(CC(C)C)c2cc3cccnc3[nH]2)c1` (stereo not shown) [Example 135, 1-{3-[3-Methyl-1-(1H-pyrrolo[2,3-b]pyridin-2-yl)-butyl]-phenyl}-ethanone], the SC1.5 in experiment [1] amounted to 9.6 µM.

On to `CC(C)CC(c1cccc(N(C)C)c1)c1cc2cccnc2[nH]1` (stereo not shown) [Example 136, N,N-Dimethyl-3-(3-methyl-1-(1H-pyrrolo[2,3-b]pyridine-2-yl)butyl)benzenamine], for which the SC1.5 in experiment [1] was 14.3 µM.

With `CC(C)CC(c1cccc(-n2cccn2)c1)c1cc2cccnc2[nH]1` (stereo not shown) [Example 137, 2-(1-(3-(1H-Pyrazol-1-yl)phenyl)-3-methylbutyl)-1H-pyrrolo[2,3-b]pyridine], the SC1.5 in experiment [1] stood at 15.2 µM.

For the compound `CS(=O)(=O)c1ccc(C(CC2CCCC2)c2cc3cccnc3[nH]2)cc1` (stereo not shown) [Example 138, 2-[2-Cyclopentyl-1-(4-methanesulfonyl-phenyl)-ethyl]-1H-pyrrolo[2,3-b]pyridine], the change in vivo at 50 mg/kg in the experiment on C57BL/6J mice was -50.4%. Also, the SC1.5 in experiment [1] turned out to be 0.236 µM.

Take `Clc1ccc(C(CC2CCCC2)c2cc3cccnc3[nH]2)cc1Cl` (stereo not shown) [Example 139, 2-[2-Cyclopentyl-1-(3,4-dichloro-phenyl)-ethyl]-1H-pyrrolo[2,3-b]pyridine]: in the experiment on C57BL/6J mice, the change in vivo at 50 mg/kg was determined as 25.4%. Moreover, the SC1.5 in experiment [1] is 1.1 µM.
